# Laboratory results taken from publication PMC6943709, “Synergistic Inhibition of Acetylcholinesterase by Alkaloids Derived from Stephaniae Tetrandrae Radix, Coptidis Rhizoma and Phellodendri Chinensis Cortex” (Molecules, 2019).
# Read-outs that look alike come from different tables or passages of the source.
# Biological target: T1, Acetylcholinesterase (AChE) (Mus musculus, UniProt P21836)
# T1 construct: The assay medium consisted of brain lysate (5 mg/mL) containing different concentrations of testing drugs; from tissue; host or cells: mouse brain lysate
# T1 sequence (P21836 32-614): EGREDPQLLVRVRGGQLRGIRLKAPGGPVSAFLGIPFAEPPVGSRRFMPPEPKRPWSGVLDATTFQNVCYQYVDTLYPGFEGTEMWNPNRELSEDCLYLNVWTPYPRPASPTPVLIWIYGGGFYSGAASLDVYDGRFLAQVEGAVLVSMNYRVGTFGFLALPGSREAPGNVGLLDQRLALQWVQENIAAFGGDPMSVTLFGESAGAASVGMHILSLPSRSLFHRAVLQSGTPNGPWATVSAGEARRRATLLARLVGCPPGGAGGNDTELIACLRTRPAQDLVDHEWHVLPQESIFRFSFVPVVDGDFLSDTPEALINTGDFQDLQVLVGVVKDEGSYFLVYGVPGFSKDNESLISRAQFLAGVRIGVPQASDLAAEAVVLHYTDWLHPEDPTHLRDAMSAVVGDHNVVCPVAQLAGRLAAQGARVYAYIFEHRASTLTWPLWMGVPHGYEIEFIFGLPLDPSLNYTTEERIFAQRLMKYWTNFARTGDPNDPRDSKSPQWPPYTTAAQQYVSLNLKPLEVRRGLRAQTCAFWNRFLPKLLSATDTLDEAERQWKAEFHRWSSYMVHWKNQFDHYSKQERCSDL
# Assay: biochemical
# Type: biochemical
# Conditions: for AChE Inhibitory Activity: ranking by IC50, molar concentration (alkaloids)
# Description: The combinations of fangchinoline–coptisine/berberine at concentration ratios of 1:5, 1:2, 1:1, and 2:1 were individually prepared by mixing appropriate volumes of fangchinoline and coptisine or berberine stock solutions. The solutions of fangchinoline–coptisine combinations (with initial system concentrations 4:20, 10:20, 20:20, and 20:10 μM, respectively) were diluted into seven concentrations by DMSO, respectively. The solutions of fangchinoline–berberine combinations (with initial system concentrations 2:10, 5:10, 10:10, and 20:10 μM, respectively) were diluted into seven concentrations by DMSO, respectively. The stocks of tetrandrine, epiberberine, and palmatine were taken appropriately and diluted into six concentrations (with initial system concentrations 30, 100, and 50 μM, respectively) by DMSO, respectively.
# The mouse brain lysate (0.1 g/mL, containing 10 mM HEPES (pH 7.4), 1 mM EDTA, 1 mM EGTA, 150 mM NaCl, 0.5% triton X-100, 10 μg/mL leupeptin, 10 μg/mL aprotinin, 10 μg/mL pepstatin, and 50 μg/mL benzamidine HCL) was prepared. AChE enzymatic activity was assayed by 96-well microtiter plate with a final volume of 200 μL, according to the Ellman method. […] Briefly, the mixture of brain lysate containing the testing drugs, Na2HPO4 buffer, and iso-OMPA solution were incubated at 37 °C for 10 min, and then ATCh and DNTB solutions were added. The reaction solution was incubated at 37 °C for 30 min, and AChE activity was determined by measuring the absorbance at 405 nm. To eliminate the drug–solvent influence on AChE enzymatic activity, the concentration of DMSO was controlled at 0.5% in the 200 μL reaction volume. In order to correct for color interference at 405 nm, a background color contrast group without brain lysate and a drug color contrast group without brain lysate were set, respectively. […] Tacrine was used as a positive control. Protein concentrations were measured with a kit from Bio-Rad (Hercules, CA, USA).
Structure (SMILES),IC50,AChE Inhibitory Activity,"AChE inhibitory potency (mouse brain lysate, result in words)","IC50 (single alkaloids, mouse brain lysate, Mean ± SEM, n = 3, read-out: IC50)"
COc1cc2c(cc1OC)-c1cc3ccc(OC)c(OC)c3c[n+]1CC2 [Palmatine],6.52 ± 0.84 µM,"++ (for molar concentration, “+++”, “++”, and “+” represent IC50 values of 1–5, 5–10 and 10–20 μM, respectively)",,
COc1ccc2cc1Oc1ccc(cc1)C[C@H]1c3cc(c(OC)cc3CCN1C)Oc1c(OC)c(OC)cc3c1[C@H](C2)N(C)CC3 [Tetrandrine],,−,did not show AChE inhibitory potency,
COc1cc2c(cc1OC)-c1cc3ccc4c(c3c[n+]1CC2)OCO4 [Epiberberine],,"+ (for molar concentration, “+++”, “++”, and “+” represent IC50 values of 1–5, 5–10 and 10–20 μM, respectively)",,18.7 ± 0.83 µM
COc1ccc2cc3[n+](cc2c1OC)CCc1cc2c(cc1-3)OCO2 [Berberine],2.33 ± 0.16 µM,"+++ (for molar concentration, “+++”, “++”, and “+” represent IC50 values of 1–5, 5–10 and 10–20 μM, respectively)",,
c1c2c(cc3c1OCO3)-c1cc3ccc4c(c3c[n+]1CC2)OCO4 [Coptisine],13.5 ± 1.48 µM,"+ (for molar concentration, “+++”, “++”, and “+” represent IC50 values of 1–5, 5–10 and 10–20 μM, respectively)",,
COc1ccc2cc1Oc1ccc(cc1)C[C@H]1c3cc(c(OC)cc3CCN1C)Oc1c(O)c(OC)cc3c1[C@H](C2)N(C)CC3 [Fangchinoline],2.17 ± 0.05 µM,"+++ (for molar concentration, “+++”, “++”, and “+” represent IC50 values of 1–5, 5–10 and 10–20 μM, respectively)",,
